Laboratory results taken from patent US10765114B2, “4-amino-6-(pyridyl and 2-substitutedphenyl)-picolinates and 6-amino-2-(pyridyl and 2-substitutedphenyl)-pyrimidine-4-carboxylates and their use as herbicides” (Dow AgroSciences LLC, priority 2013, dated 2020).

Test system: Key Broadleaf Weed and Crop Species
Experiment: Post-Emergent Test II (Table 5)
Type: in vivo
Conditions: Abutilon theophrasti, post-emergence, 336 h, ABUTH: velvetleaf (Abutilon theophrasti), application rate 70 (kg ai/ha; footnote: g ai/ha), read-out: Visual Growth Reduction (%) 14 Days After Application ABUTH
Outline: (§1)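 Post-emergence greenhouse spray, 1st-2nd true leaf stage; track sprayer, 187 L/ha; acetone/DMSO stock diluted in aqueous acetone/IPA/DMSO with Atplus 411F and Triton X-155; rates 1× to 1/16×; subirrigated; visual injury 0 (none) to 100% (complete kill) at 14 days.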

Compound | pest or weed control at 70 g/ha [%]
COC(=O)c1nc(-c2ccc(Cl)c(F)c2OC)nc(N)c1OC [Compound 70, Methyl 6-amino-2-(4-chloro-3-fluoro-2-methoxyphenyl)-5-methoxypyrimidine-4-carboxylate] | 85 to 94

Same assay, conditions: Abutilon theophrasti, post-emergence, 336 h, ABUTH: velvetleaf (Abutilon theophrasti), application rate 140 (kg ai/ha; footnote: g ai/ha), read-out: Visual Growth Reduction (%) 14 Days After Application ABUTH

Compound | pest or weed control at 140 g/ha [%]
COC(=O)c1nc(-c2ccc(Cl)c(F)c2OC)nc(N)c1OC [Compound 70, Methyl 6-amino-2-(4-chloro-3-fluoro-2-methoxyphenyl)-5-methoxypyrimidine-4-carboxylate] | 60 to 74

Same assay, conditions: Amaranthus retroflexus, post-emergence, 336 h, AMARE: redroot pigweed (Amaranthus retroflexus), application rate 70 (kg ai/ha; footnote: g ai/ha), read-out: Visual Growth Reduction (%) 14 Days After Application AMARE

Compound | pest or weed control at 70 g/ha [%]
COC(=O)c1nc(-c2ccc(Cl)c(F)c2OC)nc(N)c1OC [Compound 70, Methyl 6-amino-2-(4-chloro-3-fluoro-2-methoxyphenyl)-5-methoxypyrimidine-4-carboxylate] | 95 to 100

Same assay, conditions: Amaranthus retroflexus, post-emergence, 336 h, AMARE: redroot pigweed (Amaranthus retroflexus), application rate 140 (kg ai/ha; footnote: g ai/ha), read-out: Visual Growth Reduction (%) 14 Days After Application AMARE

Compound | pest or weed control at 140 g/ha [%]
COC(=O)c1nc(-c2ccc(Cl)c(F)c2OC)nc(N)c1OC [Compound 70, Methyl 6-amino-2-(4-chloro-3-fluoro-2-methoxyphenyl)-5-methoxypyrimidine-4-carboxylate] | 95 to 100

Same assay, conditions: Brassica napus, post-emergence, 336 h, BRSSS: oilseed rape, canola (Brassica napus), application rate 70 (kg ai/ha; footnote: g ai/ha), read-out: Visual Growth Reduction (%) 14 Days After Application BRSSS

Compound | pest or weed control at 70 g/ha [%]
COC(=O)c1nc(-c2ccc(Cl)c(F)c2OC)nc(N)c1OC [Compound 70, Methyl 6-amino-2-(4-chloro-3-fluoro-2-methoxyphenyl)-5-methoxypyrimidine-4-carboxylate] | 95 to 100

Same assay, conditions: Brassica napus, post-emergence, 336 h, BRSSS: oilseed rape, canola (Brassica napus), application rate 140 (kg ai/ha; footnote: g ai/ha), read-out: Visual Growth Reduction (%) 14 Days After Application BRSSS

Compound | pest or weed control at 140 g/ha [%]
COC(=O)c1nc(-c2ccc(Cl)c(F)c2OC)nc(N)c1OC [Compound 70, Methyl 6-amino-2-(4-chloro-3-fluoro-2-methoxyphenyl)-5-methoxypyrimidine-4-carboxylate] | 95 to 100

Same assay, conditions: Chenopodium album, post-emergence, 336 h, CHEAL: lambsquarters (Chenopodium album), application rate 70 (kg ai/ha; footnote: g ai/ha), read-out: Visual Growth Reduction (%) 14 Days After Application CHEAL

Compound | pest or weed control at 70 g/ha [%]
COC(=O)c1nc(-c2ccc(Cl)c(F)c2OC)nc(N)c1OC [Compound 70, Methyl 6-amino-2-(4-chloro-3-fluoro-2-methoxyphenyl)-5-methoxypyrimidine-4-carboxylate] | 95 to 100

Same assay, conditions: Chenopodium album, post-emergence, 336 h, CHEAL: lambsquarters (Chenopodium album), application rate 140 (kg ai/ha; footnote: g ai/ha), read-out: Visual Growth Reduction (%) 14 Days After Application CHEAL

Compound | pest or weed control at 140 g/ha [%]
COC(=O)c1nc(-c2ccc(Cl)c(F)c2OC)nc(N)c1OC [Compound 70, Methyl 6-amino-2-(4-chloro-3-fluoro-2-methoxyphenyl)-5-methoxypyrimidine-4-carboxylate] | 95 to 100

Same assay, conditions: Euphorbia heterophylla, post-emergence, 336 h, EPHHL: wild poinsettia (Euphorbia heterophylla), application rate 70 (kg ai/ha; footnote: g ai/ha), read-out: Visual Growth Reduction (%) 14 Days After Application EPHHL

Compound | pest or weed control at 70 g/ha [%]
COC(=O)c1nc(-c2ccc(Cl)c(F)c2OC)nc(N)c1OC [Compound 70, Methyl 6-amino-2-(4-chloro-3-fluoro-2-methoxyphenyl)-5-methoxypyrimidine-4-carboxylate] | 0 to 29

Same assay, conditions: Euphorbia heterophylla, post-emergence, 336 h, EPHHL: wild poinsettia (Euphorbia heterophylla), application rate 140 (kg ai/ha; footnote: g ai/ha), read-out: Visual Growth Reduction (%) 14 Days After Application EPHHL

Compound | pest or weed control at 140 g/ha [%]
COC(=O)c1nc(-c2ccc(Cl)c(F)c2OC)nc(N)c1OC [Compound 70, Methyl 6-amino-2-(4-chloro-3-fluoro-2-methoxyphenyl)-5-methoxypyrimidine-4-carboxylate] | 0 to 29

Same assay, conditions: Helianthus annuus, post-emergence, 336 h, HELAN: sunflower (Helianthus annuus), application rate 70 (kg ai/ha; footnote: g ai/ha), read-out: Visual Growth Reduction (%) 14 Days After Application HELAN

Compound | pest or weed control at 70 g/ha [%]
COC(=O)c1nc(-c2ccc(Cl)c(F)c2OC)nc(N)c1OC [Compound 70, Methyl 6-amino-2-(4-chloro-3-fluoro-2-methoxyphenyl)-5-methoxypyrimidine-4-carboxylate] | 95 to 100

Same assay, conditions: Helianthus annuus, post-emergence, 336 h, HELAN: sunflower (Helianthus annuus), application rate 140 (kg ai/ha; footnote: g ai/ha), read-out: Visual Growth Reduction (%) 14 Days After Application HELAN

Compound | pest or weed control at 140 g/ha [%]
COC(=O)c1nc(-c2ccc(Cl)c(F)c2OC)nc(N)c1OC [Compound 70, Methyl 6-amino-2-(4-chloro-3-fluoro-2-methoxyphenyl)-5-methoxypyrimidine-4-carboxylate] | 95 to 100

Same assay, conditions: Viola tricolor, post-emergence, 336 h, VIOTR: wild pansy (Viola tricolor), application rate 70 (kg ai/ha; footnote: g ai/ha), read-out: Visual Growth Reduction (%) 14 Days After Application VIOTR

Compound | pest or weed control at 70 g/ha [%]
COC(=O)c1nc(-c2ccc(Cl)c(F)c2OC)nc(N)c1OC [Compound 70, Methyl 6-amino-2-(4-chloro-3-fluoro-2-methoxyphenyl)-5-methoxypyrimidine-4-carboxylate] | 0 to 29

Same assay, conditions: Viola tricolor, post-emergence, 336 h, VIOTR: wild pansy (Viola tricolor), application rate 140 (kg ai/ha; footnote: g ai/ha), read-out: Visual Growth Reduction (%) 14 Days After Application VIOTR

Compound | pest or weed control at 140 g/ha [%]
COC(=O)c1nc(-c2ccc(Cl)c(F)c2OC)nc(N)c1OC [Compound 70, Methyl 6-amino-2-(4-chloro-3-fluoro-2-methoxyphenyl)-5-methoxypyrimidine-4-carboxylate] | 0 to 29

Test system: Key Grass and Sedge Weeds as well as Grass Crops
Experiment: Post-Emergent Test II (Table 6)
Type: in vivo
Conditions: post-emergence, 336 h, CYPSS, 70 g ai/ha, 14 days after application, read-out: Visual Growth Reduction (%) 14 Days After Application CYPSS
Outline: as §1

Compound | pest or weed control at 70 g/ha [%]
COC(=O)c1nc(-c2ccc(Cl)c(F)c2OC)nc(N)c1OC [Compound 70, Methyl 6-amino-2-(4-chloro-3-fluoro-2-methoxyphenyl)-5-methoxypyrimidine-4-carboxylate] | 0 to 29
